# In PubChem BioAssay (NCI):
#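 1) Cells in 96-well plates. 2) Compound, 48 h, 5 concentrations. 3) Linear interpolation between surrounding doses. 4) Unreached endpoint = highest concentration. Here, GI50 denotes the concentration required for 50% inhibition of growth. TGI denotes the concentration required for complete inhibition of growth.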
# What was measured:
# Test in all cases: NCI-60 cell line screen, 48 h
# MDA-MB-435 = system: MDA-MB-435
# IGROV1 ovarian = system: IGROV1 ovarian
# SF-268 CNS = system: SF-268 CNS
# MCF7 breast = system: MCF7 breast
# U251 CNS = system: U251 CNS
# HCT-116 colon = system: HCT-116 colon
# HS 578T breast = system: HS 578T breast
# SN12C renal = system: SN12C renal
# EKVX NSCLC = system: EKVX NSCLC
# UACC-62 melanoma = system: UACC-62 melanoma
# OVCAR-4 ovarian = system: OVCAR-4 ovarian
# NCI-H23 lung = system: NCI-H23 lung
# DU-145 prostate = system: DU-145 prostate
# SK-MEL-28 melanoma = system: SK-MEL-28 melanoma
# TK-10 renal = system: TK-10 renal
# KM12 colon = system: KM12 colon
# MDA-MB-468 breast = system: MDA-MB-468 breast
# HOP-62 NSCLC = system: HOP-62 NSCLC
# OVCAR-5 ovarian = system: OVCAR-5 ovarian
# HOP-92 NSCLC = system: HOP-92 NSCLC
# LOX IMVI melanoma = system: LOX IMVI melanoma
# 786-0 renal = system: 786-0 renal
# SK-MEL-5 melanoma = system: SK-MEL-5 melanoma
# A549 NSCLC = system: A549 NSCLC
# SF-539 CNS = system: SF-539 CNS
# SK-MEL-2 melanoma = system: SK-MEL-2 melanoma
# UO-31 renal = system: UO-31 renal
# NCI-H226 lung = system: NCI-H226 lung
# HCT-15 colon = system: HCT-15 colon
# NCI-H460 lung = system: NCI-H460 lung
# OVCAR-8 ovarian = system: OVCAR-8 ovarian
# SNB-75 CNS = system: SNB-75 CNS
# SK-OV-3 ovarian = system: SK-OV-3 ovarian
# SF-295 CNS = system: SF-295 CNS
# M14 melanoma = system: M14 melanoma
# BT-549 breast = system: BT-549 breast
# ACHN renal = system: ACHN renal
# CCRF-CEM leukemia = system: CCRF-CEM leukemia
# A498 renal = system: A498 renal
# MOLT-4 leukemia = system: MOLT-4 leukemia
# UACC-257 melanoma = system: UACC-257 melanoma
# SW-620 colon = system: SW-620 colon
# MALME-3M melanoma = system: MALME-3M melanoma
# SR leukemia = system: SR leukemia
# RPMI-8226 leukemia = system: RPMI-8226 leukemia
# NCI/ADR-RES ovarian = system: NCI/ADR-RES ovarian
# COLO 205 colon = system: COLO 205 colon
# HT29 colon = system: HT29 colon
# RXF 393 renal = system: RXF 393 renal
# OVCAR-3 ovarian = system: OVCAR-3 ovarian
# PC-3 prostate = system: PC-3 prostate
# K-562 leukemia = system: K-562 leukemia
# MDA-MB-231 breast = system: MDA-MB-231 breast
# NCI-H522 lung = system: NCI-H522 lung
# CAKI-1 renal = system: CAKI-1 renal
# SNB-19 CNS = system: SNB-19 CNS
# T-47D breast = system: T-47D breast
# HL-60(TB) leukemia = system: HL-60(TB) leukemia
# HCC-2998 colon = system: HCC-2998 colon
compound,measurement,setting,value
COc1cc(/C=C/C(=O)c2ccc(NC(=O)CN3C(=O)NC(C)(c4ccccc4)C3=O)cc2)cc(OC)c1OC (stereo not drawn),GI50,MDA-MB-435,3.64 µM
same,TGI,MDA-MB-435,47.9 µM
same,GI50,IGROV1 ovarian,4.85 µM
same,TGI,IGROV1 ovarian,25.2 µM
same,GI50,SF-268 CNS,8.39 µM
same,TGI,SF-268 CNS,90.8 µM
same,GI50,MCF7 breast,3.06 µM
same,TGI,MCF7 breast,13.5 µM
same,GI50,U251 CNS,2.7 µM
same,TGI,U251 CNS,12.4 µM
same,GI50,HCT-116 colon,2.27 µM
same,TGI,HCT-116 colon,8.61 µM
same,GI50,HS 578T breast,32.6 µM
same,TGI,HS 578T breast,> 100 µM
same,GI50,SN12C renal,12.9 µM
same,TGI,SN12C renal,42 µM
same,GI50,EKVX NSCLC,12.9 µM
same,TGI,EKVX NSCLC,75.8 µM
same,GI50,UACC-62 melanoma,11.7 µM
same,TGI,UACC-62 melanoma,24.8 µM
same,GI50,OVCAR-4 ovarian,13.4 µM
same,TGI,OVCAR-4 ovarian,> 100 µM
same,GI50,NCI-H23 lung,4.61 µM
same,TGI,NCI-H23 lung,19.4 µM
same,GI50,DU-145 prostate,3.66 µM
same,TGI,DU-145 prostate,15 µM
same,GI50,SK-MEL-28 melanoma,14.6 µM
same,TGI,SK-MEL-28 melanoma,32.1 µM
same,GI50,TK-10 renal,46.6 µM
same,TGI,TK-10 renal,> 100 µM
same,GI50,KM12 colon,3.69 µM
same,TGI,KM12 colon,17.8 µM
same,GI50,MDA-MB-468 breast,3.2 µM
same,TGI,MDA-MB-468 breast,12.6 µM
same,GI50,HOP-62 NSCLC,15.8 µM
same,TGI,HOP-62 NSCLC,93.4 µM
same,GI50,OVCAR-5 ovarian,10.5 µM
same,TGI,OVCAR-5 ovarian,26.7 µM
same,GI50,HOP-92 NSCLC,34 µM
same,TGI,HOP-92 NSCLC,> 100 µM
same,GI50,LOX IMVI melanoma,3.09 µM
same,TGI,LOX IMVI melanoma,13.2 µM
same,GI50,786-0 renal,8.43 µM
same,TGI,786-0 renal,23.3 µM
same,GI50,SK-MEL-5 melanoma,9.99 µM
same,TGI,SK-MEL-5 melanoma,21.5 µM
same,GI50,A549 NSCLC,4.53 µM
same,TGI,A549 NSCLC,> 100 µM
same,GI50,SF-539 CNS,2.23 µM
same,TGI,SF-539 CNS,5.69 µM
same,GI50,SK-MEL-2 melanoma,17.5 µM
same,TGI,SK-MEL-2 melanoma,40.7 µM
same,GI50,UO-31 renal,17.3 µM
same,TGI,UO-31 renal,74.1 µM
same,GI50,NCI-H226 lung,19.3 µM
same,TGI,NCI-H226 lung,> 100 µM
same,GI50,HCT-15 colon,11.7 µM
same,TGI,HCT-15 colon,48.9 µM
same,GI50,NCI-H460 lung,3.93 µM
same,TGI,NCI-H460 lung,22.7 µM
same,GI50,OVCAR-8 ovarian,5.03 µM
same,TGI,OVCAR-8 ovarian,> 100 µM
same,GI50,SNB-75 CNS,5.33 µM
same,TGI,SNB-75 CNS,84.5 µM
same,GI50,SK-OV-3 ovarian,37.4 µM
same,TGI,SK-OV-3 ovarian,> 100 µM
same,GI50,SF-295 CNS,14.3 µM
same,TGI,SF-295 CNS,31.8 µM
same,GI50,M14 melanoma,6.67 µM
same,TGI,M14 melanoma,22.9 µM
same,GI50,BT-549 breast,4.73 µM
same,TGI,BT-549 breast,21.2 µM
same,GI50,ACHN renal,13.6 µM
same,TGI,ACHN renal,46.7 µM
same,GI50,CCRF-CEM leukemia,2.9 µM
same,TGI,CCRF-CEM leukemia,> 100 µM
same,GI50,A498 renal,31.6 µM
same,TGI,A498 renal,> 100 µM
same,GI50,MOLT-4 leukemia,2.57 µM
same,TGI,MOLT-4 leukemia,8.25 µM
same,GI50,UACC-257 melanoma,11.6 µM
same,TGI,UACC-257 melanoma,28 µM
same,GI50,SW-620 colon,4.35 µM
same,TGI,SW-620 colon,20.8 µM
same,GI50,MALME-3M melanoma,14.6 µM
same,TGI,MALME-3M melanoma,44.3 µM
same,GI50,SR leukemia,1.93 µM
same,TGI,SR leukemia,> 100 µM
same,GI50,RPMI-8226 leukemia,2.32 µM
same,TGI,RPMI-8226 leukemia,10.2 µM
same,GI50,NCI/ADR-RES ovarian,> 100 µM
same,TGI,NCI/ADR-RES ovarian,> 100 µM
same,GI50,COLO 205 colon,13.7 µM
same,TGI,COLO 205 colon,30.4 µM
same,GI50,HT29 colon,3.75 µM
same,TGI,HT29 colon,13 µM
same,GI50,RXF 393 renal,3.01 µM
same,TGI,RXF 393 renal,12.2 µM
same,GI50,OVCAR-3 ovarian,4.16 µM
same,TGI,OVCAR-3 ovarian,21 µM
same,GI50,PC-3 prostate,10.8 µM
same,TGI,PC-3 prostate,> 100 µM
same,GI50,K-562 leukemia,3.16 µM
same,TGI,K-562 leukemia,> 100 µM
same,GI50,MDA-MB-231 breast,4.52 µM
same,TGI,MDA-MB-231 breast,25.4 µM
same,GI50,NCI-H522 lung,9 µM
same,TGI,NCI-H522 lung,23.7 µM
same,GI50,CAKI-1 renal,8.66 µM
same,TGI,CAKI-1 renal,> 100 µM
same,GI50,SNB-19 CNS,14.9 µM
same,TGI,SNB-19 CNS,32.9 µM
same,GI50,T-47D breast,6.56 µM
same,TGI,T-47D breast,69.9 µM
same,GI50,HL-60(TB) leukemia,2.26 µM
same,TGI,HL-60(TB) leukemia,8.23 µM
same,GI50,HCC-2998 colon,2.92 µM
same,TGI,HCC-2998 colon,8.97 µM
